Experimental findings from patent publication US10968183B2, “Small molecule FIEL1 inhibitor in inflammatory and fibrotic lung injury” (UNIVERSITY OF PITTSBURGH—OF THE COMMONWEALTH SYSTEM OF …, priority 2015, dated 2021) are described below.

Molecules are shown by their SMILES.

In this assay the target is T1, FIEL1 (Mus musculus, UniProt Q8CHG5).
T1 construct: endogenous in cells; host or cells: MLE (murine lung epithelial) cells
T1 sequence (Q8CHG5 1-789): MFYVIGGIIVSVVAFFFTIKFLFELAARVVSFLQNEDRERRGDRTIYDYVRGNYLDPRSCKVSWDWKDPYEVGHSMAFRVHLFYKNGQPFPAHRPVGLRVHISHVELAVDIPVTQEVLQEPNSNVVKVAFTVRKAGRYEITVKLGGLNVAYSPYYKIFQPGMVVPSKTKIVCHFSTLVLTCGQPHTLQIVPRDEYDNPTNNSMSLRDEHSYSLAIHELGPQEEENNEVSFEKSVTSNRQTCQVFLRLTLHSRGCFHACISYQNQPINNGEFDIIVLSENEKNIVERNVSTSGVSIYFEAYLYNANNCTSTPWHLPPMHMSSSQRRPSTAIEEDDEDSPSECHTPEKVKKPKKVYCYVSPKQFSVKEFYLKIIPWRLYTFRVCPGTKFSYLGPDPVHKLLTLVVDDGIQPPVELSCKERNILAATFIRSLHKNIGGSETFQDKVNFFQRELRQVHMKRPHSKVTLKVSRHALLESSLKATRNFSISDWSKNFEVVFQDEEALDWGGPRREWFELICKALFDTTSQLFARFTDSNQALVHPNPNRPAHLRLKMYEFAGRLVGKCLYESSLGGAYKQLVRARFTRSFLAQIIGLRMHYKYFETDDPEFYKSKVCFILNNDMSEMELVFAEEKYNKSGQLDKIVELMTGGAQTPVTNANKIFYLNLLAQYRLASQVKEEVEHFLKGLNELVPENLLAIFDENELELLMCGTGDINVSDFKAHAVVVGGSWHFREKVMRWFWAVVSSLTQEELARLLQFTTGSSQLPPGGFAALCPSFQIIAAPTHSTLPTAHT
Briefly: PIAS4 protein immunoblot in MLE cells exposed to compounds. The assay is classed as cell-based, murine. As to conditions: 18 h, FIG. 7D. The method, then: FIG. 7A. […] FIG. 7B. Structures of the BC-1480 backbone and lead compound BC-1485. FIG. 7C. FIEL1 protein was HIS-purified from FIEL1 expression in 293T cells using cobalt beads. Beads were then extensively washed prior to exposure to BC-1480 or BC-1485 at different concentrations (10^−4 to 100 μM). Purified PIAS4 protein was then incubated with drug-bound FIEL1 beads overnight. Beads were washed, and proteins were eluted and resolved on SDS-PAGE. The relative amounts of PIAS4 detected in the pull-downs was normalized to loading and quantified (n=2). FIG. 7D. MLE cells were exposed to BC-1480 or BC-1485 at various concentrations for 18 h. Cells were then collected and immunoblotted. FIGS. 7E-J. C57BL/6J mice were administered with bleomycin (0.05 U) for 7-21 days. Compounds BC-1480 and BC-1485 were given to mice through drinking water with an estimated dose of 5 mg/kg/d. Mice were euthanized, and lungs were lavaged with saline, harvested, and then homogenized. Lavage proteins, CXCL1, and total cell count were measured in FIGS. 7E-G. H. Survival studies of mice that were given bleomycin and compound treatments. Mice were carefully monitored over time; moribund, preterminal animals were immediately euthanized and recorded as deceased. […] Hydroxyproline contents were measured in lungs from 7, 14, and 21d after bleomycin challenge. […]
In general terms: A western blot detects proteins with antibodies after separation by electrophoresis.

With `CC(NC(=O)c1ccc(NS(=O)(=O)c2ccc3[nH]c(=O)[nH]c3c2)cc1)C(=O)N(C)C` (stereo not shown) [BC-1485], the “activity in increasing PIAS4 protein levels compared to BC-1480” value was over 100 fold.
